Assays:
Rac-1 = Rac-1 (Homo sapiens (Human), UniProt P63000); test: Rac inhibition assay (labeled GTP); type: binding; settings: read-out: Rac-1 % Inh.
KRas G12D mutant protein = KRas G12D mutant protein (Homo sapiens (Human), UniProt P01116, G12D); test: Ras GTP binding domain inhibition assay (labeled GTP); settings: at 20 μM; read-out: KRas G12D % Inh.
Rho-A = Rho-A (Homo sapiens (Human), UniProt P61586); test: Rho inhibition assay (labeled GTP); type: binding; settings: read-out: Rho-A % Inh.
Rho-A, sequence (P61586 whole entry): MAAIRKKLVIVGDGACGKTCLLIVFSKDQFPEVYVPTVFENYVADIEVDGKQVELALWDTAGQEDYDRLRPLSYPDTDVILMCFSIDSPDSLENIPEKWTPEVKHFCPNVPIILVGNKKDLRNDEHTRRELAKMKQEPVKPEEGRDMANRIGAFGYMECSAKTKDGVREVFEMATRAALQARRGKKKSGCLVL

KRas G12D mutant protein, sequence (P01116-2 other isoform, or with tags, fused parts or gaps G12D): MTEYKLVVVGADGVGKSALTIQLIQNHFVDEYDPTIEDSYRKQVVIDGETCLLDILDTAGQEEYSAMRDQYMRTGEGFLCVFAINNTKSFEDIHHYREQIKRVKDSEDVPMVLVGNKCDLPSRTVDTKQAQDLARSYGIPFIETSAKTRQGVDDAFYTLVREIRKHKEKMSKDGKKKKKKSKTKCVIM

Row | Structure (SMILES) | inhibition at 20 µM (Rac-1) | inhibition at 20 µM (KRas G12D mutant protein) | inhibition at 20 µM (Rho-A)
1 | COCCCNc1nc(-c2nccn2C)nc2sc(-c3ccccc3)c(-c3ccccc3)c12 [drawing 3888] | 25 to 50% | 51 to 75% | 51 to 75%
2 | Cn1ccnc1-c1nc(NCCOC2CC2)c2c(-c3ccccc3)c(-c3ccccc3)sc2n1 [drawing 3894] | 25 to 50% | 1 to 25% | 1 to 25%
3 | COCC(C)Nc1nc(-c2nccn2C)nc2sc(-c3ccccc3)c(-c3ccccc3)c12 (stereo not drawn) [drawing 3895] | 1 to 25% | 1 to 25% | 1 to 25%
4 | Cn1ccnc1-c1nc(NCCCO)c2c(-c3ccccc3)c(-c3ccccc3)sc2n1 [drawing 3897] | 51 to 75% | 51 to 75% | 51 to 75%
5 | COCCNc1nc(-c2nccn2C)nc2sc(-c3ccccc3)c(-c3ccccc3Cl)c12 [drawing 3898] | 25 to 50% | 25 to 50% | 25 to 50%
6 | COCCNc1nc(-c2nccn2C)nc2sc(-c3ccccc3Cl)c(-c3ccccc3)c12 [drawing 3899] | 0% | 1 to 25% | 25 to 50%
7 | COCCNc1nc(-c2nccn2C)nc2sc(-c3ccncc3)c(-c3ccccc3)c12 [drawing 3900] | 51 to 75% | 51 to 75% | 51 to 75%
8 | COCCNc1nc(-c2cn(C)cn2)nc2sc(-c3ccccc3)c(-c3ccccc3)c12 [drawing 3901] | 51 to 75% | 25 to 50% | 51 to 75%
9 | COCCNc1nc(-c2nccn2C)nc2sc(C)c(-c3ccccc3)c12 [drawing 3902] | 51 to 75% | 51 to 75% | 51 to 75%
10 | COCCNc1nc(-c2cn(C)cn2)nc2sc(C)c(-c3ccccc3)c12 [drawing 3903] | 51 to 75% | 25 to 50% | 51 to 75%
11 | CC(C)COc1ccc(-c2c(-c3ccccc3)sc3c(O)nc(-c4nccn4C)nc23)cn1 [drawing 3905] | 51 to 75% | 51 to 75% | 51 to 75%
12 | Cn1ccnc1-c1nc(O)c2sc(-c3ccccc3)c(-c3ccccc3)c2n1 [drawing 3906] | 0% | 0% | 1 to 25%
13 | COCCNc1nc(-c2nccn2C)nc2sc(-c3ccccc3)c(-c3ccc(OC)cc3)c12 [drawing 3907] | 51 to 75% | 25 to 50% | 51 to 75%
14 | COCCNc1nc(-c2nccn2C)nc2sc(C3CCOCC3)c(-c3ccccc3)c12 [drawing 3908] | 76 to 100% | 51 to 75% | 51 to 75%
15 | COCCNc1nc(-c2cccc(N)n2)nc2sc(-c3ccccc3)c(-c3ccccc3)c12 [drawing 3909] | 0% | 0% | 0%
16 | Cn1ccnc1-c1nc(O)c2sc(-c3ccccc3)c(-c3cccc(C(F)(F)F)c3)c2n1 [drawing 3910] | 1 to 25% | 0% | 0%
17 | Cc1sc2c(O)nc(-c3nccn3C)nc2c1-c1ccccc1 [drawing 3912] | 25 to 50% | 25 to 50% | 51 to 75%
18 | COCCNc1nc(-c2nccn2C)nc2sc(-c3ccccc3)c(-c3ccncc3)c12 [drawing 3914] | 76 to 100% | 51 to 75% | 76 to 100%
19 | COCCNc1nc(-c2nccn2C)nc2sc(-c3ccc(OC)cc3)c(-c3ccccc3)c12 [drawing 3915] | 25 to 50% | 25 to 50% | 1 to 25%
20 | Cn1ccnc1-c1nc(O)c2scc(-c3cccc(C(F)(F)F)c3)c2n1 [drawing 3916] | 51 to 75% | 25 to 50% | 25 to 50%
21 | Cc1sc2c(O)nc(-c3nccn3C)nc2c1-c1cccc(C(F)(F)F)c1 [drawing 3917] | 25 to 50% | 1 to 25% | 0%
22 | Cc1sc2c(O)nc(-c3nccn3C)nc2c1-c1ccccc1Cl [drawing 3920] | 51 to 75% | 25 to 50% | 51 to 75%
23 | Cn1ccnc1-c1nc(O)c2scc(-c3cccc(OC(F)(F)F)c3)c2n1 [drawing 3921] | 51 to 75% | 51 to 75% | 25 to 50%
24 | Cn1cnc(-c2nc(O)c3scc(-c4cccc(C(F)(F)F)c4)c3n2)c1 [drawing 3922] | 25 to 50% | 25 to 50% | 25 to 50%
25 | Cn1cnc(-c2nc(O)c3scc(-c4cccc(OC(F)(F)F)c4)c3n2)c1 [drawing 3924] | 25 to 50% | 25 to 50% | 25 to 50%

Results, then the compound that gave them:

Row | inhibition at 20 µM (Rac-1) | inhibition at 20 µM (KRas G12D mutant protein) | inhibition at 20 µM (Rho-A) | Structure (SMILES)
26 | 25 to 50% | 1 to 25% | 25 to 50% | CC(O)CNc1nc(-c2nccn2C)nc2sc(-c3ccccc3)c(-c3ccccc3)c12 (stereo not drawn) [drawing 3887]
27 | 25 to 50% | 51 to 75% | 0% | COC1CCN(c2nc(-c3nccn3C)nc3sc(-c4ccccc4)c(-c4ccccc4)c23)C1 (stereo not drawn) [drawing 3889]
28 | 1 to 25% | 1 to 25% | 25 to 50% | CCOCCOc1nc(-c2nccn2C)nc2sc(-c3ccccc3)c(-c3ccccc3)c12 [drawing 3890]
29 | 1 to 25% | 25 to 50% | 1 to 25% | CCN(CC)CCOc1nc(-c2nccn2C)nc2sc(-c3ccccc3)c(-c3ccccc3)c12 [drawing 3891]
30 | 1 to 25% | 0% | 1 to 25% | COCCNc1nc(-c2ccncn2)nc2sc(-c3ccccc3)c(-c3ccccc3)c12 [drawing 3892]
31 | 51 to 75% | 51 to 75% | 51 to 75% | CCOCCNc1nc(-c2nccn2C)nc2sc(-c3ccccc3)c(-c3ccccc3)c12 [drawing 3893]
32 | 1 to 25% | 1 to 25% | 1 to 25% | CC(CO)Nc1nc(-c2nccn2C)nc2sc(-c3ccccc3)c(-c3ccccc3)c12 (stereo not drawn) [drawing 3896]
33 | 1 to 25% | 25 to 50% | 51 to 75% | COCCNc1nc(-c2nccn2C)nc2sc(-c3cccc(OC)c3)c(-c3ccccc3)c12 [drawing 3904]
34 | 1 to 25% | 1 to 25% | 1 to 25% | COc1ccc(-c2c(-c3ccccc3)sc3c(O)nc(-c4nccn4C)nc23)cn1 [drawing 3911]
35 | 51 to 75% | 51 to 75% | 51 to 75% | Cn1ccnc1-c1nc(O)c2sc(-c3ccccc3)c(-c3ccccc3Cl)c2n1 [drawing 3913]
36 | 25 to 50% | 1 to 25% | 1 to 25% | Cc1sc2c(O)nc(-c3nccn3C)nc2c1-c1ccc(OCC(C)C)nc1 [drawing 3918]
37 | 1 to 25% | 1 to 25% | 0% | COc1ccc(-c2c(C)sc3c(O)nc(-c4nccn4C)nc23)cn1 [drawing 3919]
38 | 25 to 50% | 1 to 25% | 25 to 50% | CC(C)COc1ccc(-c2csc3c(O)nc(-c4cn(C)cn4)nc23)cn1 [drawing 3923]

From patent US10940139B2, “Compounds that interact with the Ras superfamily for the treatment of cancers, inflammatory diseases, rasopathies, and fibrotic disease” (Shy Therapeutics LLC, priority 2017, dated 2021)
